Test results from paper PMC3813382 (The Journal of General Physiology, 2013).
Changes are numbered by the printed parent chain.

Key:
WT Slo2.1 channels [1] = biological target: T1, WT Slo2.1 channels (Homo sapiens, UniProt Q6UVM3); conditions: 1 mM NFA; ref Dai et al., 2010; cited from earlier work
T1 sequence (Q6UVM3 1-1135): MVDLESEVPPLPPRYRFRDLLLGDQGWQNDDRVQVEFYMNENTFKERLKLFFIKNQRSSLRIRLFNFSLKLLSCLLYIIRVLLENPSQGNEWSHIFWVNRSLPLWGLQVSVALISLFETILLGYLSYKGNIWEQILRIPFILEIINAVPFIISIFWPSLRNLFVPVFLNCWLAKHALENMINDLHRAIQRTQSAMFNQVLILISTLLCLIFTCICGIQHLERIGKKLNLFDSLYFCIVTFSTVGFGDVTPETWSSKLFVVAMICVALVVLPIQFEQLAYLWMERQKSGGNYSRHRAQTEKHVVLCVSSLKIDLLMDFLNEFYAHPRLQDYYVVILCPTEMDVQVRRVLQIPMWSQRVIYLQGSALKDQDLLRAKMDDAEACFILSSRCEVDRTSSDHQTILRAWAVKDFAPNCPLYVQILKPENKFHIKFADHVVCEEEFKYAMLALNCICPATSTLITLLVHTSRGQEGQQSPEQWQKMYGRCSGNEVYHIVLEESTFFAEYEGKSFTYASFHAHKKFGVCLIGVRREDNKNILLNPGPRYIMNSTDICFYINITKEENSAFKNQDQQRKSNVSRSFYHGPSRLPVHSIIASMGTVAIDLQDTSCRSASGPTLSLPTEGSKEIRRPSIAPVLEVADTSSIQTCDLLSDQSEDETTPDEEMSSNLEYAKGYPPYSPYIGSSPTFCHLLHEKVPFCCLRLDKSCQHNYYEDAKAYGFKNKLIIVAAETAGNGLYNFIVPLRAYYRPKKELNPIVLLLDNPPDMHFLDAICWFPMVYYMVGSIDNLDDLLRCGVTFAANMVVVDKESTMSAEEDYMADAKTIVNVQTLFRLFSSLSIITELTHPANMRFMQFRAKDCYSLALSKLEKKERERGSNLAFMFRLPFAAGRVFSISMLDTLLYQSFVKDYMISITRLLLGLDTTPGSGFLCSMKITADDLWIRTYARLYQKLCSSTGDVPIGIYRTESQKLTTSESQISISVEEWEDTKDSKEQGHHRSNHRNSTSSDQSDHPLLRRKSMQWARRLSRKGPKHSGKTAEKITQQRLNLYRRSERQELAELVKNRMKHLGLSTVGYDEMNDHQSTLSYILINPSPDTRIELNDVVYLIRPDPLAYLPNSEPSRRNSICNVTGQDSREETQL

E275D Slo2.1 channels = biological target: T2, E275D Slo2.1 channels (Homo sapiens, UniProt Q6UVM3, E275D); test: Activation of ISlo2.1 by NFA, two-electrode voltage clamp in oocytes; format: cell-based
T2 sequence (Q6UVM3 1-1135 E275D): T1 sequence (Q6UVM3 1-1135) with E275D

WT Slo2.1 channels [2] = biological target: T1, WT Slo2.1 channels; test: as above; format: cell-based

EC50 (E275D Slo2.1 channels): 192 µM
Hill coefficient nH of NFA activation (E275D Slo2.1 channels; E275D): 1.08 ± 0.09
EC50 for E275D lower than EC50 for WT channels (E275D Slo2.1 channels; E275D vs WT): 11 fold
maximal increase in current at 0 mV (E275D Slo2.1 channels; E275D, 3 mM NFA (maximally effective concentration)): ~2.5 fold
EC50 (WT Slo2.1 channels [2]): 2100 ± 100 µM
time to peak response of ISlo2.1 during repetitive pulsing (WT Slo2.1 channels [2]; 6 mM NFA, oocytes injected with ≤1 ng WT cRNA): ~3 min
Compound: O=C(O)c1cccnc1Nc1cccc(C(F)(F)F)c1 [NFA, niflumic acid]
effective valence z (WT Slo2.1 channels [1]): 0.48 e
midpoint of voltage dependence of channel activation (WT Slo2.1 channels [1]): +95 mV
